Tests used:
TrkA = TrkA (Homo sapiens, UniProt P04629); experiment: Inhibitory activity test for Trk kinases (γ-33P-ATP isotope test), TrkA; type: biochemical; details: 33P-ATP 10 μM, 2 h reaction; read-out: Kinase IC50 TrkA
Description: (§1) Inhibitory Activity Test for Trk Kinases
(§2) In this experiment, the γ-^33P-ATP isotope test was used to test the inhibition effect of a compound on kinases TrkA, TrkB and TrkC, and the half maximal inhibitory concentration IC50 of the inhibitory activity of the compound on the enzymes was obtained.
(§3) A compound was dissolved in 100% DMSO to a particular concentration, and then the resulting solution was gradient-diluted by an automatic loading device to different concentrations of the test samples (DMSO dissolving solutions).
(§4) 3.1. The reaction substrate was diluted using the base reaction buffer;
(§5) 3.2. The kinase was added into the substrate solution and mixed gently and uniformly;
(§6) 3.3. The compounds of different concentrations diluted in 100% DMSO were added into the kinase solution using an automatic loading system, and incubated for 20 min at room temperature;
(§7) 3.4. ^33P-ATP (10 μM, 10 μCi/μl) was added at room temperature to initiate the kinase reaction, and the reaction was carried out for 2 h.
(§8) The reaction solution was subjected to an ion exchange filtration system to remove unreacted ATP and the generated ADP ions during the reaction. Then, the radiometric quantity of ^33P isotope in the substrate was detected.
(§9) The kinase activity in the system with the addition of the inhibitors of different concentrations was calculated from the radiometric quantity, to obtain the inhibitory effect of the compounds with different concentrations on the kinase activity. Fitting was performed using graphpad prism to obtain IC50 values of the compounds for inhibition.

TrkB = TrkB (Homo sapiens, UniProt Q16620); experiment: Inhibitory activity test for Trk kinases (γ-33P-ATP isotope test), TrkB; type: biochemical; details: 33P-ATP 10 μM, 2 h reaction; read-out: Kinase IC50 TrkB
Description: as §1, §2, §3, §4, §5, §6, §7, §8, §9

TrkC = TrkC (Homo sapiens, UniProt Q16288); experiment: Inhibitory activity test for Trk kinases (γ-33P-ATP isotope test), TrkC; type: biochemical; details: 33P-ATP 10 μM, 2 h reaction; read-out: Kinase IC50 TrkC
Description: as §1, §2, §3, §4, §5, §6, §7, §8, §9

BaF3-tel-NTRK1 = experiment: Growth inhibition test, CellTiter-Glo, tel-NTRK1-BaF3 cells; type: cell-based; details: 72 hours incubation, read-out: Cell GI50 BaF3-tel-NTRK1
Description: (§10) Growth Inhibition Test for Tel-NTRK1-BaF3 and BaF3-LMNA-NTRK1 Cells
(§11) In this experiment, the CellTiter-Glo cell proliferation fluorescence assay was used to test the growth inhibitory effect of a compound on tel-NTRK1-BaF3 and BaF3-LMNA-NTRK1 transgenic cells, and the half maximal growth inhibitory concentration GI50 of the compound on the cells was obtained.
(§12) A compound to be tested was dissolved in DMSO to formulate 10 mM of a mother solution. The mother solution was 3× diluted to 10 mM, 3.333 mM, 1.111 mM, 0.370 mM, 0.123 mM, 0.041 mM, 0.014 mM, 0.005 mM, and 0.002 mM. The prepared solutions were each stored in a 0.5 ml sterilized dorft tube (Corning, USA). In addition, an equal volume of DMSO solvent was used as a blank control. With 10 concentration gradients, the plate was stored in vacuum at −20° C.
The tel-NTRK1-BaF3 and BaF3-LMNA-NTRK1 cell lines were cultured with RPMI 1640 (Corning, N.Y., USA)+10% fetal bovine serum (Gibico, Invitrogen, USA). After the cells were thawed, they were cultured for two generations to be tested.
(§13) Logarithmic growth phase cells (2000-2500 cells/well) were inoculated in a 12×8 96-well white opaque cell culture plate (Corning 3570, NY, USA) in a volume of 100 μL per well, and a drug was added to the cell plate (0.1 μL/well) at the final concentration of the compound of 10 μM, 3.3 μM, 1.1 μM, 0.37 μM, 0.12 IM, 0.04 μM, 0.014 IM, 0.005 μM, and 0.002 μM (0.4 uL of the drug solution was added to 400 ul of the cell homogenate, and then mixed uniformly, and the resulting mixture was added at 100 ul per well). The plate was incubated at 37° C. in a 5% CO2 incubator for 72 hours, and then 20 μL CellTiter-Glo cell proliferation fluorescence assay reagent was added. The plate was allowed to stand for 10 min, and read in the Envision Plate-Reader. […]
A corresponding […] value RLU of each well was obtained by reading in the Envision Plate-reader. […]
The biochemical activity of the compounds of the present invention was determined by the above experiment, and the measured GI50 values are shown in table 2: […]

BaF3-LMNA-NTRK1 = experiment: Growth inhibition test, CellTiter-Glo, BaF3-LMNA-NTRK1 cells; type: cell-based; details: 72 hours incubation, read-out: Cell GI50 BaF3-LMNA-NTRK1
Description: as §10, §11
as §12, with “In addition, an equal volume of DMSO solvent was used as a blank control. With 10 concentration gradients, the plate was stored in vacuum at −20° C.” left out
as §13, with “added.” for “added. The plate was allowed to stand for 10 min, and read in the Envision Plate-Reader.”

[1] = Metabolic stability in human liver microsomes; type: in vitro ADME
Description: Testing on Metabolic Stability of Compounds in Human Liver Microsomes
The total volume of an incubation system was 250 μL, and 50 mmol/L PBS buffer (pH=7.4) was used to prepare incubation solutions of liver microsomes from various species with a protein concentration of 0.5 mg/mL. Before the start of the incubation, 2.5 μL of a 100 μmol/L compound to be tested was mixed with 197.5 μL of the above incubation solution, pre-incubated in a 37° C. water bath for 5 min, and then added with a 50 μL reducing coenzyme II solution (5 mmol/L) that was likewise pre-incubated for 5 min to start the reaction (in the reaction system, the protein content of liver microsomes from various species was 0.5 g/L, and the final concentration of the compound to be tested was 1 μmol/L), incubated in a 37° C. water bath with shaking, and taken out at 0, 5, 15, 30, and 60 min. 600 μL of a methanol solution of mixed positive and negative internal standards with internal standards Terfenadine (positive ion internal standard, 25 ng/mL) and Tolbutamide (negative ion internal standard, 50 ng/mL) was immediately added to terminate the reaction. The incubation solution after termination was shaken for 2 min and centrifuged (4° C., 16000 r/min) for 10 min, and the supernatant was taken for LC-MS/MS detection to quantitatively analyze the remaining amount of the parent drug. (DMSO<0.1%).
The concentration of the compound at 0 min incubation was regarded as 100%, and the concentrations at other incubation time points were converted into the remaining percentages. The natural logarithm of the remaining percentage at each time point was linearly regressed against the incubation time, and the slope k was calculated. According to the formula T1/2=−0.693/k, the in vitro half-life was calculated. Clearance in liver microsomes (CLint (μL/min/mg protein)=Ln (2)*1000/T1/2 (min)/Protein Conc(mg/ml)).
Test data of metabolic stability of the compounds of the present invention in human liver microsomes are listed in detail in table 3: […]

Sequence of TrkC (Q16288 32-839, species assumed): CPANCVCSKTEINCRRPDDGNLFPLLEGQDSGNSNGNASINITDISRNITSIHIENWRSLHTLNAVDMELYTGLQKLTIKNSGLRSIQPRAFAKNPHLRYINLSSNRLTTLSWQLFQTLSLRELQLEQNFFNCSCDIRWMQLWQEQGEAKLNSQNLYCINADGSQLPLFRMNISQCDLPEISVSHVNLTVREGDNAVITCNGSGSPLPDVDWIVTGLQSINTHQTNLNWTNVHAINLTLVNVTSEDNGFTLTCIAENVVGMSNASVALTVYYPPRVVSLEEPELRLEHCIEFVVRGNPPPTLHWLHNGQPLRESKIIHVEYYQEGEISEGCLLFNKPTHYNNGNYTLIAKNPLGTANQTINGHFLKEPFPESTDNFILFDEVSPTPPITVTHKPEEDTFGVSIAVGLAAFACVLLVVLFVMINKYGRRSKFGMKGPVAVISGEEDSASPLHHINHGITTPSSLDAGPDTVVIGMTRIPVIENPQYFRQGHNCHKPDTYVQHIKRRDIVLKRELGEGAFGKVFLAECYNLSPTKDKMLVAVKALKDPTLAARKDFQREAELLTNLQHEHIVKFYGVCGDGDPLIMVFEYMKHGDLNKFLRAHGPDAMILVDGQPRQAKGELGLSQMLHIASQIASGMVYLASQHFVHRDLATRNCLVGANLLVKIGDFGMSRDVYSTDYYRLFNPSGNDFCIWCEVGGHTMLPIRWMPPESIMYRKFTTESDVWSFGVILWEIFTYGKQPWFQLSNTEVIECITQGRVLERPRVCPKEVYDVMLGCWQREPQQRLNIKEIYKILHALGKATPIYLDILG
Sequence of TrkA (P04629 33-796, species assumed): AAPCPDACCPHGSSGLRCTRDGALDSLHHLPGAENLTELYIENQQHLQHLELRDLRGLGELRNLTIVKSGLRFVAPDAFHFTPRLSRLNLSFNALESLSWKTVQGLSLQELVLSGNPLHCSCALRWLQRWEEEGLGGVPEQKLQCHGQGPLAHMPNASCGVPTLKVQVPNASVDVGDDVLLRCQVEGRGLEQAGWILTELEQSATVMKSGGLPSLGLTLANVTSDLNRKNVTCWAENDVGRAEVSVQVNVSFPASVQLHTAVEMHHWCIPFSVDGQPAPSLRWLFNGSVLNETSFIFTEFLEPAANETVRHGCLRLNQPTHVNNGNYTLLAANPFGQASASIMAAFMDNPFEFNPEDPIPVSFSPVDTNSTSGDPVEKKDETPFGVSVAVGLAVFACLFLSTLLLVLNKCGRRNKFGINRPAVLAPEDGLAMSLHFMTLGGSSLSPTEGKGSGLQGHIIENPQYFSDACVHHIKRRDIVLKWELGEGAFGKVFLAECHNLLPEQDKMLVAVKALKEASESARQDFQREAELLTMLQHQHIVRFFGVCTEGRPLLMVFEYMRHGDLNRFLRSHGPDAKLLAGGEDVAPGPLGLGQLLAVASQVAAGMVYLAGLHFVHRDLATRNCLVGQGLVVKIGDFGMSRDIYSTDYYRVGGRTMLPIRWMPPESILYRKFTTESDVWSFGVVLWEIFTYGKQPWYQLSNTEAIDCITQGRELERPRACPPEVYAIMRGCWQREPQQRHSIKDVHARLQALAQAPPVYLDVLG
Sequence of TrkB (Q16620 32-822, species assumed): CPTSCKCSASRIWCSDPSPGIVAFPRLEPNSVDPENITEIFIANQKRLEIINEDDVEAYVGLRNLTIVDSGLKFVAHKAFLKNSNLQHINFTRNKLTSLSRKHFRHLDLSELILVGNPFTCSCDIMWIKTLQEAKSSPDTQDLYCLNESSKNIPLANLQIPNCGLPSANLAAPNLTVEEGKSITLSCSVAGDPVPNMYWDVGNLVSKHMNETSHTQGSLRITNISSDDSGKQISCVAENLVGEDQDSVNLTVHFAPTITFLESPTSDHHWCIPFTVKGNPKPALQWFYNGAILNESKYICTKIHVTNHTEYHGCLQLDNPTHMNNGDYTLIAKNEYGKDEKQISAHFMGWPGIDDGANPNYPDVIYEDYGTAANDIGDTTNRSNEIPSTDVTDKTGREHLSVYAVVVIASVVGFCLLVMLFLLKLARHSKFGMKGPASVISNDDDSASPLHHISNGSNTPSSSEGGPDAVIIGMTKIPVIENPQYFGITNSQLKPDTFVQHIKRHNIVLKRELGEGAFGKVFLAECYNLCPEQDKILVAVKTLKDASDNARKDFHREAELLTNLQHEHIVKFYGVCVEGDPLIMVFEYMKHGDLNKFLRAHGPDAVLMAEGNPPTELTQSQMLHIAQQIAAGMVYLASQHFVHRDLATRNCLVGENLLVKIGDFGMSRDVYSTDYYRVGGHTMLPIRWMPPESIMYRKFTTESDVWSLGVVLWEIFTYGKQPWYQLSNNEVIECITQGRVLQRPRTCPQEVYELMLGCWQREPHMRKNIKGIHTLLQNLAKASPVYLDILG

IC50 (TrkA): 4.23 nM
IC50 (TrkB): 0.57 nM
IC50 (TrkC): 0.25 nM
GI50 (BaF3-tel-NTRK1): 12 nM
GI50 (BaF3-LMNA-NTRK1): 15.1 nM
Remaining % (60 min) ([1]; human liver microsomes 0.5 mg/mL, compound 1 μmol/L, 37° C., 60 min): 52.26%
Negative control Remaining % (60 min) ([1]; human liver microsomes, negative control incubation, 60 min): 98.1%
half-life at 1 μmol/L ([1]; human, liver microsomes, pH 7.4): 66.6 min
microsomal CLint at 1 μmol/L ([1]; pH 7.4, human liver microsomes 0.5 mg/mL, compound 1 μmol/L, read-out: Clint (μL/min/mg protein)): 20.8 µL/min/mg
SMILES: O=C1NN(C2CC2)CCc2ncc(F)cc2[C@H]2CCCN2c2ccn3ncc1c3n2 [Example 1, (R,I^3E,I^4E)-6-cyclopropyl-3^5-fluoro-6,7-diazepine-1(5,3)-pyrazolo[1,5-a]pyrimidine-3(3,2)-pyridine-2(1,2)-pyrrolidine cyclooctane-8-one]

From patent US11597729B2, “Tropomyosin receptor kinase inhibitor, preparation method therefor and use thereof” (JIANGSU VCARE PHARMATECH CO., LTD., priority 2018, dated 2023)
